Assay results from patent US20250222044A1, “LIMOSILACTOBACILLUS REUTERI GOLDGUT-LR99 AND APPLICATION THEREOF” (priority 2024, published 2025).

The compounds below were run on Limosilactobacillus reuteri GOLDGUT-LR99 (assay: Carbon source utilization and oxidation experiment (AN Biolog micro-pore plate)). Settings: substrate utilization by the strain.
Type: cell-based
Description: The AN Biolog micro-pore plate was used for measuring the utilization and oxidation conditions of different carbon sources of Limosilactobacillus reuteri GOLDGUT-LR99, the AN microplate used nutrients and biochemical reagents, and the method included the following steps: 1 mL of Limosilactobacillus reuteri GOLDGUT-LR99 bacterial liquid of the strain to be detected at the end of logarithmic growth was pipetted and centrifuged, then the supernatant was removed, the cells was washed three times with the seed liquid and suspended with 1 mL of the seed liquid, 50 μL of the suspension was taken and diluted in 10 mL of the seed liquid, the diluent was subpacked in a Biolog plate (100 μL/pore) after mixing uniformly, and the Biolog plate with the diluent was placed in 37° C. for anaerobic culture for 24 hours. After the culture was finished, OD590 and OD750 were detected by using microplate reader, the numerical values were recorded, and the utilization conditions of carbohydrate, organic acid and other substances of the Limosilactobacillus reuteri GOLDGUT-LR99 were calculated, wherein the calculation method was as follows: Y=OD590−OD750;
With `O=C(CO)[C@@H](O[C@H]1O[C@H](CO)[C@@H](O)[C@H](O)[C@H]1O)[C@H](O)[C@H](O)CO` [turanose] the “utilization effect (in words)” value was “better utilization effect”.

Same assay, conditions: substrate utilization by the strain, 37° C. anaerobic culture for 24 hours
With `OC[C@H]1O[C@H](O[C@H]2[C@H](O)[C@@H](O)[C@H](O)O[C@@H]2CO)[C@H](O)[C@@H](O)[C@@H]1O` [Maltose] the “Utilization (Y=OD590−OD750)” value was “− (when Y < 0.05, it is shown that the strain was not able to utilize this substance, marked as −)”. In the case of `OC[C@H]1O[C@@](CO)(O[C@H]2O[C@H](CO)[C@@H](O)[C@H](O)[C@H]2O)[C@@H](O[C@H]2O[C@H](CO)[C@@H](O)[C@H](O)[C@H]2O)[C@@H]1O` [Melezitose], the “Utilization (Y=OD590−OD750)” value is reported as “++ (when Y > 0.1, it is shown that the strain was able to effectively utilize this substance, marked as++)”. `COC(C)=O` [Methyl acetate] was tested, and the “Utilization (Y=OD590−OD750)” value was “++ (when Y > 0.1, it is shown that the strain was able to effectively utilize this substance, marked as++)”. `COC(=O)C(C)O` (centres unmarked) [Methyl lactate] was tested, and the “Utilization (Y=OD590−OD750)” value was “+ (when 0.1 > Y > 0.05, it is shown that the strain was able to better utilize this substance, marked as +)”. For `CC(=O)N[C@H]1C(O)O[C@H](CO)[C@H](O)[C@@H]1O` (stereo partly drawn) [N-Acetyl-D-galactosamine], the “Utilization (Y=OD590−OD750)” value was “− (when Y < 0.05, it is shown that the strain was not able to utilize this substance, marked as −)”. For `CC(=O)N[C@H]1C(O)O[C@H](CO)[C@@H](O)[C@@H]1O` (stereo partly drawn) [N-Acetyl-D-glucosamine], the “Utilization (Y=OD590−OD750)” value was “− (when Y < 0.05, it is shown that the strain was not able to utilize this substance, marked as −)”. `CC(=O)N[C@H]1[C@@H](O)[C@H](O)[C@@H](CO)O[C@H]1O` [N-Acetyl-β-D-mannosamine] was tested, and the “Utilization (Y=OD590−OD750)” value was “− (when Y < 0.05, it is shown that the strain was not able to utilize this substance, marked as −)”. `OC[C@H]1O[C@H](OC[C@H]2OC(O)(CO)[C@@H](O)[C@@H]2O)[C@H](O)[C@@H](O)[C@@H]1O` (some centres unmarked) [Palatinose] was tested, and the “Utilization (Y=OD590−OD750)” value was “++ (when Y > 0.1, it is shown that the strain was able to effectively utilize this substance, marked as++)”. In the case of `CCC(=O)O` [Propionic acid], the “Utilization (Y=OD590−OD750)” value is reported as “− (when Y < 0.05, it is shown that the strain was not able to utilize this substance, marked as −)”. `CC(=O)C(=O)O` [Pyruvic acid] was tested, and the “Utilization (Y=OD590−OD750)” value was “+ (when 0.1 > Y > 0.05, it is shown that the strain was able to better utilize this substance, marked as +)”. For `OC[C@@H](O)[C@@H](O)[C@@H](O)CO` [Ribitol], the “Utilization (Y=OD590−OD750)” value was “− (when Y < 0.05, it is shown that the strain was not able to utilize this substance, marked as −)”. `OCc1ccccc1O[C@@H]1O[C@H](CO)[C@@H](O)[C@H](O)[C@H]1O` [Salicin] was tested, and the “Utilization (Y=OD590−OD750)” value was “− (when Y < 0.05, it is shown that the strain was not able to utilize this substance, marked as −)”. For `OC[C@H]1O[C@H](OC[C@H]2O[C@H](OC[C@H]3O[C@H](O[C@]4(CO)O[C@H](CO)[C@@H](O)[C@@H]4O)[C@H](O)[C@@H](O)[C@@H]3O)[C@H](O)[C@@H](O)[C@H]2O)[C@H](O)[C@@H](O)[C@H]1O` [Stachyose], the “Utilization (Y=OD590−OD750)” value was “+ (when 0.1 > Y > 0.05, it is shown that the strain was able to better utilize this substance, marked as +)”. With `NC(=O)CCC(=O)O` [Succinamide acid] the “Utilization (Y=OD590−OD750)” value was “+ (when 0.1 > Y > 0.05, it is shown that the strain was able to better utilize this substance, marked as +)”. For `COC(=O)CCC(=O)O` [Succinic acid methyl ester], the “Utilization (Y=OD590−OD750)” value was “− (when Y < 0.05, it is shown that the strain was not able to utilize this substance, marked as −)”. For `OC[C@H]1O[C@@](CO)(O[C@H]2O[C@H](CO)[C@@H](O)[C@H](O)[C@H]2O)[C@@H](O)[C@@H]1O` [Sucrose], the “Utilization (Y=OD590−OD750)” value was “− (when Y < 0.05, it is shown that the strain was not able to utilize this substance, marked as −)”. With `Cc1cn([C@H]2C[C@H](O)[C@@H](CO)O2)c(=O)[nH]c1=O` [Thymidine] the “Utilization (Y=OD590−OD750)” value was “− (when Y < 0.05, it is shown that the strain was not able to utilize this substance, marked as −)”. For `O=c1ccn([C@@H]2O[C@H](COP(=O)(O)O)[C@@H](O)[C@H]2O)c(=O)[nH]1` [Uridine-5′-monophosphate], the “Utilization (Y=OD590−OD750)” value was “− (when Y < 0.05, it is shown that the strain was not able to utilize this substance, marked as −)”. With `O=c1ccn([C@@H]2O[C@H](CO)[C@@H](O)[C@H]2O)c(=O)[nH]1` [Uridine] the “Utilization (Y=OD590−OD750)” value was “− (when Y < 0.05, it is shown that the strain was not able to utilize this substance, marked as −)”. In the case of `OC[C@@H](O)[C@@H](O)CO` [i-Erythritol], the “Utilization (Y=OD590−OD750)” value is reported as “− (when Y < 0.05, it is shown that the strain was not able to utilize this substance, marked as −)”. For `O[C@H]1[C@H](O)[C@@H](O)[C@H](O)[C@@H](O)[C@H]1O` [m-Inositol], the “Utilization (Y=OD590−OD750)” value was “+ (when 0.1 > Y > 0.05, it is shown that the strain was able to better utilize this substance, marked as +)”. In the case of `O=C(O)C(O)C(O)C(=O)O` (centres unmarked) [m-Tartaric acid], the “Utilization (Y=OD590−OD750)” value is reported as “+ (when 0.1 > Y > 0.05, it is shown that the strain was able to better utilize this substance, marked as +)”. With `OC[C@H]1O[C@@H]2O[C@H]3[C@H](O)[C@@H](O)[C@@H](O[C@H]4[C@H](O)[C@@H](O)[C@@H](O[C@H]5[C@H](O)[C@@H](O)[C@@H](O[C@H]6[C@H](O)[C@@H](O)[C@@H](O[C@H]7[C@H](O)[C@@H](O)[C@@H](O[C@H]1[C@H](O)[C@H]2O)O[C@@H]7CO)O[C@@H]6CO)O[C@@H]5CO)O[C@@H]4CO)O[C@@H]3CO` [α-Cyclodextrin] the “Utilization (Y=OD590−OD750)” value was “++ (when Y > 0.1, it is shown that the strain was able to effectively utilize this substance, marked as++)”. `OC[C@H]1O[C@H](O)[C@H](O)[C@@H](O)[C@@H]1O` [α-D-Glucose] was tested, and the “Utilization (Y=OD590−OD750)” value was “− (when Y < 0.05, it is shown that the strain was not able to utilize this substance, marked as −)”. In the case of `OC[C@H]1O[C@@H](O[C@H]2[C@H](O)[C@@H](O)[C@@H](O)O[C@@H]2CO)[C@H](O)[C@@H](O)[C@H]1O` [α-D-Lactose], the “Utilization (Y=OD590−OD750)” value is reported as “− (when Y < 0.05, it is shown that the strain was not able to utilize this substance, marked as −)”. With `CCC(O)C(=O)O` (stereo not drawn) [α-Hydroxybutyric acid] the “Utilization (Y=OD590−OD750)” value was “− (when Y < 0.05, it is shown that the strain was not able to utilize this substance, marked as −)”. In the case of `O=C(O)CCC(=O)C(=O)O` [α-Ketoglutaric acid], the “Utilization (Y=OD590−OD750)” value is reported as “− (when Y < 0.05, it is shown that the strain was not able to utilize this substance, marked as −)”. With `CCCC(=O)C(=O)O` [α-Ketovaleric acid] the “Utilization (Y=OD590−OD750)” value was “− (when Y < 0.05, it is shown that the strain was not able to utilize this substance, marked as −)”. In the case of `COC1OC(CO)C(O)C(O)C1O` [α-Methyl-D-galactoside], the “Utilization (Y=OD590−OD750)” value is reported as “− (when Y < 0.05, it is shown that the strain was not able to utilize this substance, marked as −)”. In the case of `CO[C@H]1O[C@H](CO)[C@@H](O)[C@H](O)[C@H]1O` [α-Methyl-D-glucoside], the “Utilization (Y=OD590−OD750)” value is reported as “− (when Y < 0.05, it is shown that the strain was not able to utilize this substance, marked as −)”. `OC[C@H]1O[C@@H]2O[C@H]3[C@H](O)[C@@H](O)[C@@H](O[C@H]4[C@H](O)[C@@H](O)[C@@H](O[C@H]5[C@H](O)[C@@H](O)[C@@H](O[C@H]6[C@H](O)[C@@H](O)[C@@H](O[C@H]7[C@H](O)[C@@H](O)[C@@H](O[C@H]8[C@H](O)[C@@H](O)[C@@H](O[C@H]1[C@H](O)[C@H]2O)O[C@@H]8CO)O[C@@H]7CO)O[C@@H]6CO)O[C@@H]5CO)O[C@@H]4CO)O[C@@H]3CO` [β-Cyclodextrin] was tested, and the “Utilization (Y=OD590−OD750)” value was “− (when Y < 0.05, it is shown that the strain was not able to utilize this substance, marked as −)”.
